Counter-ions that a name gives are not always drawn. Like-named read-outs stand apart in the source and are kept apart here.
Tests used:
[1] = system: Balb/3T3 cells; details: 10 min, 500 µM
Experimental: (§1) Balb/3T3 cells were incubated in Dulbecco's modified Eagle medium (glucose-rich) containing 100/o v/v bovine fetal serum. […] The sample was then dissolved in a buffer solution prepared by the further addition of 4 mM of calcium chloride to the buffer solution mentioned above. If the sample was difficult to dissolve in water, it was dissolved first in dimethyl sulphoxide (DMSO) and then the resulting solution was diluted with the buffer (the final concentration of DMSO was determined to be 0.1%). The cell suspension was preincubated at 30° C for 5 minutes, and 100 µℓ of this suspension were added to 100 µℓ of the sample solution to initiate enzymatic reaction. After incubation at 30° C for 10 minutes, 20 µℓ of 1 N aqueous hydrochloric acid was added to stop the reaction. The reaction mixture was then centrifuged at 3000 rpm for 3 minutes to obtain 100 µℓ of the supernatant. Cyclic 3',5'-adenosine monophosphate (cAMP) contained in the supernatant was quantitatively analyzed by radioimmunoassay using a Yamasa cAMP radioimmunoassay kit YSI-7701. The CAMP accumulating effect is reported as the ratio between the value measured using a test compound and that measured in the control.

[2] = system: Balb/3T3 cells; experiment: cAMP accumulation in Balb/3T3 cells, radioimmunoassay (Experiment 5)
Experimental: as §1

[3] = system: IOP; experiment: IOP lowering effect, area between IOP-time curves (Experiment 6); assay type: in vivo, male New Zealand white rabbits; details: 25 µℓ three times every 2 minutes, ratio of areas between IOP lines
Experimental: In the following Experiments 1 to 6, the test animals used were male New Zealand white rabbits, each weighing about 2.5 kg, raised in a room where the room temperature, relative humidity and lighting time were controlled to be 23° C, 60% and from 07:00 to 19:00, respectively. The animals were chosen from those where no abnormalities could be detected in their eyes by observation with the naked eye. They were given water freely but feed was restricted.
The compound under test was dissolved in 100 mM of a sodium phosphate buffer solution (pH 7.2) containing a small amount of a 0.1 N aqueous solution of sodium hydroxide. In the case of timolol maleate, a 0.5% w/v eye lotion (Timoptol 0.5%, Santen Pharm. Co.) was used as such.
The cornea of the rabbit was anesthetized by the topical application of one or two drops of 0.4% oxybuprocaine hydrochloride. The IOP was measured two or three times for each eye and the mean value was calculated and is reported as the IOP value. After the IOP of the rabbit eye had been measured, 25 µℓ of the sample solution was applied to center of the cornea of one eye three times every 2 minutes. The other eye was treated with the vehicle alone in a similar way. The IOP of both eyes was then measured.
IOP values obtained from both eyes were plotted against times after application and the area enclosed by the two IOP lines (with and without the active compound) was calculated. The IOP lowering effect of each sample was expressed as a ratio of the area described above to that of 0.5^0/o timolol.

[4] = system: normal rabbits; experiment: Intraocular pressure reduction in normal rabbits (Experiment 1); assay type: in vivo, male New Zealand white rabbits
Experimental: In the following Experiments 1 to 6, the test animals used were male New Zealand white rabbits, each weighing about 2.5 kg, raised in a room where the room temperature, relative humidity and lighting time were controlled to be 23° C, 60% and from 07:00 to 19:00, respectively. The animals were chosen from those where no abnormalities could be detected in their eyes by observation with the naked eye. They were given water freely but feed was restricted. The reduction in intraocular pressure (IOP) caused by the compounds of the present invention was investigated using groups of three male New Zealand white rabbits for each test. The compounds of the present invention were employed as solutions dissolved in a 50 mM phosphate buffer (pH 7.0) containing 0.4% w/v of sodium chloride which were adjusted to concentrations of about 1% w/v of the compound under test. Both eyes of each rabbit were anesthetized with eye drops containing an ophthalmic anesthetic (0.4% Benoxil, available from Santen Pharmaceutical Co., Ltd.), and then the IOP in each eye was measured by means of a PTG (Pneumatonograph: Alcon). The test substance was then instilled into either the left eye or the right eye (the eye to be tested) in an amount of 50 µℓ (in the case of 0.5% timolol, a known compound used for comparison, the amount was 30 µℓ). Sixty minutes after this instillation, the same amount of the same test compound was instilled into the same eye of each test animal. On the other hand, no instillation was effected into the other eye of each animal, which was used as a control eye. The IOP values of both eyes were measured 30,60,90,120,150 and 180 minutes, after the initial instillation of the test substance. The IOP reduction at each time of measurement caused by each test substance was calculated from the following equation: Intraocular pressure reduction (Ap, mmHg) = (Ic - It) - (Ic° - It°), • in which: • Ic the IOP of the control eye; • It is the IOP of the test eye; • Ic° the IOP of the control eye immediately before the initial instillation; and • It° is the IOP of the test eye immediately before the initial instillation. The average value of the IOP reduction at each time of measurement was calculated to obtain the intraocular reduction (Ap, mmHg) of the test substance. The results are reported as a ratio of the Δp of the test substance to that of the known substance, 0.5% timolol, which is, therefore, taken as 1.

[5] = system: water load-induced elevation of intraocular pressure; experiment: Effect on water load-induced elevation of intraocular pressure, water load test (Experiment 2); assay type: in vivo, male New Zealand white rabbits; details: 0.5% timolol maleate; water load test
Experimental: In the following Experiments 1 to 6, the test animals used were male New Zealand white rabbits, each weighing about 2.5 kg, raised in a room where the room temperature, relative humidity and lighting time were controlled to be 23° C, 60% and from 07:00 to 19:00, respectively. The animals were chosen from those where no abnormalities could be detected in their eyes by observation with the naked eye. They were given water freely but feed was restricted. The compound under test was dissolved in 100 mM of a sodium phosphate buffer solution (pH 7.2) containing a small amount of a 0.1 N aqueous solution of sodium hydroxide. In the case of timolol maleate, a 0.5% w/v eye lotion (Timoptol 0.5%, Santen Pharm. Co.) was used as such. Each rabbit was anesthetized with urethane (1.0 g/kg, i.v.), and the IOP values of both eyes were measured. Immediately thereafter, 50 µℓ of the sample solution was applied to one eye (test eye). To the other eye (control eye), 50 µℓ of the vehicle alone was applied. Ninety minutes after this application, the values of IOP were measured and then the water load test was performed as follows. Sixty ml/kg of tap water was given compulsorily per os to the anesthetized rabbit, and then the values of IOP for both eyes were measured with the passage of time. In this Experiment, the test compound was the compound of Example 19(b), i.e. 9'-(4-acetoxybenzyl) griseolate.

[6] = system: Normal intraocular pressure; experiment: Normal intraocular pressure lowering effect (Experiment 3); assay type: in vivo, male New Zealand white rabbits; details: 0.5% timolol maleate applied to the eye
Experimental: In the following Experiments 1 to 6, the test animals used were male New Zealand white rabbits, each weighing about 2.5 kg, raised in a room where the room temperature, relative humidity and lighting time were controlled to be 23° C, 60% and from 07:00 to 19:00, respectively. The animals were chosen from those where no abnormalities could be detected in their eyes by observation with the naked eye. They were given water freely but feed was restricted. The compound under test was dissolved in 100 mM of a sodium phosphate buffer solution (pH 7.2) containing a small amount of a 0.1 N aqueous solution of sodium hydroxide. In the case of timolol maleate, a 0.5% w/v eye lotion (Timoptol 0.5%, Santen Pharm. Co.) was used as such. The corneal surface was anesthetized by the application of oxybuprocain hydrochloride (Benoxil 0.4% solution, Santen Pharm. Co.), and the IOP was measured by means of an Alcon Applanation Pneumatograph (Japan Alcon) in rabbits. The measurements were carried out 2 or 3 times for each eye, and the mean value was calculated and is regarded as the value of IOP. After determination of the IOP, 25 µℓ of a sample solution was applied to one eye (test eye) three times every two minutes, and the same volume of the vehicle alone was applied to the other eye (control eye). The values of IOP of both eyes were measured with the passage of time. In this Experiment, the test compound was the compound of Example 19(b).

[7] = drug concentration 1.0 %, 50 µℓ instilled at 0 and 60 min, average over 30-180 min, ratio to 0.5% timolol taken as 1

Compound: 9'-(3,4-Diacetoxybenzyl) griseolate [Example 22(b)]
- cAMP accumulating effect [1]: 8.3

Compound: 9'-(4-Acetoxy-3-methoxybenzyl) 7'-deoxygriseolate [Example 37]
- cAMP accumulating effect ([2]; Concentration 500 µM, ratio of value with test compound to control, 30° C, 10 minutes): 16

Compound: CC(C)(C)C(=O)Oc1ccc(COC(=O)C23C=C(C(O)C(=O)O)OC2C(O)C(n2cnc4c(N)ncnc42)O3)cc1 (centres unmarked) [Example 21(b), 9'-(4-Pivaloyloxybenzyl) griseolate]
- cAMP accumulating effect [1]: 8.5

Compound: CC(=O)Oc1ccccc1C=CCOC(=O)C12C=C(C(O)C(=O)O)OC1C(O)C(n1cnc3c(N)ncnc31)O2 (centres unmarked) [Example 31(b), 9'-(2-Acetoxycinnamyl) griseolate]
- IOP Lowering Effect (Ratio to 0.5% timolol) ([3]; Concentration 0.5 %): 1.88

Compound: COc1cc(COC(=O)C(O)C2=CC3(C(=O)O)OC(n4cnc5c(N)ncnc54)C(O)C3O2)ccc1OC(C)=O (centres unmarked) [Example 35, 8'-(4-Acetoxy-3-methoxybenzyl) griseolate]
- cAMP accumulating effect [1]: 18

Compound: 8'-Pivaloyloxyrnethyl griseolate [Example 10]
- Intraocular pressure reduction relative to 0.5% timolol [4, 7]: 1.08

Compound: CC(C)(C)NC[C@H](O)COc1nsnc1N1CCOCC1 [timolol, reference compound]
- Intraocular pressure reduction relative to 0.5% timolol ([4]; drug concentration 0.5 %, 30 µℓ instilled at 0 and 60 min, reference, taken as 1): 1.0

Compound: CC(=O)Oc1ccc(COC(=O)C(O)C2=CC3(C(=O)O)OC(n4cnc5c(N)ncnc54)C(O)C3O2)cc1 (centres unmarked) [Example 34, 8'-(4-Acetoxybenzyl) griseolate]
- cAMP accumulating effect [1]: 16

Compound: CCCC(=O)OC(C)OC(=O)C12C=C(C(O)C(=O)O)OC1C(O)C(n1cnc3c(N)ncnc31)O2 (centres unmarked) [Example 7, 9'-(1-Butyryloxyethyl) griseolate]
- Intraocular pressure reduction relative to 0.5% timolol [4, 7]: 0.79

Compound: 9'-(4-Acetoxy-3-methoxybenzyl) griseolate [Example 26(b)]
- IOP Lowering Effect (Ratio to 0.5% timolol) ([3]; Concentration 0.5 %): 3.29

Compound: CC(C)C(=O)Oc1ccc(COC(=O)C2=CC3(C(O)C(=O)O)OC(n4cnc5c(N)ncnc54)C(O)C3O2)cc1 (centres unmarked) [Example 23(b), 9'-(4-lsobutyryloxybenzyl) griseolate]
- IOP Lowering Effect (Ratio to 0.5% timolol) ([3]; Concentration 0.03 %): 1.62

Compound: CC(=O)Oc1ccc(COC(=O)C23C=C(CC(=O)O)OC2C(O)C(n2cnc4c(N)ncnc42)O3)cc1 (centres unmarked) [Example 36, 9'-(4-Acetoxybenzyl) 7'-deoxygriseolate]
- cAMP accumulating effect [1]: 16

Compound: 9'-(1-Pivaloyloxyethyl) griseolate [Example 5]
- Intraocular pressure reduction relative to 0.5% timolol [4, 7]: 0.92

Compound: Nc1ncnc2c1ncn2[C@@H]1OC2=C[C@@](C(=O)O)(C(O)C(=O)O)O[C@H]2[C@H]1O (some centres unmarked) [Griseolic acid]
- Intraocular pressure reduction relative to 0.5% timolol [4, 7]: -0.12
- fold induction at 500 µM ([2]; Mus musculus, BALB/3T3, 10 min, read-out: cAMP accumulating effect): 3.5

Compound: 9'-[1-(Isopropoxycarbonyloxy)ethyl] griseolate [Example 2]
- Intraocular pressure reduction relative to 0.5% timolol [4, 7]: 1.24

Compound: Cc1oc(=O)oc1COC(=O)C12C=C(C(O)C(=O)O)OC1C(O)C(n1cnc3c(N)ncnc31)O2 (centres unmarked) [Example 3, 9'-(5-Methyl-2-oxo-1,3-dioxolen-4-yl)methyl griseolate]
- Intraocular pressure reduction relative to 0.5% timolol [4, 7]: 0.90

Compound: CC(C)(C)NC[C@H](O)COc1nsnc1N1CCOCC1 [timolol maleate, reference compound]
- difference of IOP between the control eye and the test eye [5]: no significant difference
- significant lowering of IOP [6]: only observed 2 hours after application

Compound: 9'-Pivaloyloxymethyl griseolate [Example 1]
- Intraocular pressure reduction relative to 0.5% timolol [4, 7]: 2.38
